The record followed here is US10736859B2, “Eutectic formulations of cyclobenzaprine hydrochloride and amitriptyline hydrochloride” (Tonix Pharma Holdings Limited, priority 2013, dated 2020).

Data set [1] can be described thus: DSC, FT-IR/ATR and XRPD compatibility of Cyclobenzaprine HCl with additional excipients, mixed (A) and milled (B) 1:1 mixtures (Example 2). Particulars: DSC; for Interactions between Cyclobenzaprine HCl and excipients, Mixture 1:1 (mixed): mixture A, mechanical mixing only; for Interactions between Cyclobenzaprine HCl and excipients, Mixture 1:1 (milled): mixture B, ground in agate mortar. The class given is physicochemical. The method, then: As described above, thermal analytical techniques were further used to assess the compatibility of a drug product (tablet) containing Cyclobenzaprine HCl (API). The compatibility assessment was carried out between the API and additional excipients in a 1:1 ratio. The 1:1 API-excipient mixtures were formed in two different ways: first, by mixing only, and second, by strong milling in an agate mortar. The thermal behavior recorded in the two different mixtures were compared with those of the single components. On the basis of thermal events recorded for each component and for the mixtures, the analyses were carried out by investigating the meanings of the peaks recorded by differential scanning calorimetry (DSC) in mixtures between the API and the excipients. Furthermore, in order to define the nature of the interaction, the Fourier Transformate Infra Red Spectroscopy with Total Attenuated Reflectance (FT-IR/ATR) and X-ray powder diffraction (XRPD) of some samples (API, excipient, and mixed and milled mixtures) was carried out and compared.
Aliquots of API and each excipient were weighed in a ratio of 1:1 and ground in an agate mortar. Then, the homogeneous mixtures were analyzed. These sample mixtures were labeled “B”, while the mechanical-only mixtures were labeled “A.”
The DSC heating curves were obtained by TA 821 DSC Mettler instrument under the following conditions: • Heating rate: 10° C./min • Ambient: Nitrogen 30 mL/min • Sample holder: normal open aluminum pan • Temperature range: from 25° C. to 250° C. • Instrument calibration: Indium sample purity 99.999% Fourier Transformate Infra Red Spectroscopy with Total Attenuated Reflectance (FT-IR/ATR)
The FT-IR spectra were collected with a Perkin Elmer spectrum Two instrument with air as background and 4 cm^−1 resolution.
X-ray powder diffraction (XRPD) tests were performed with the ULTIMA IV instrument (Rigaku), laying the sample on a static sample holder. The X-ray focusing slit has a variable width, interlocked with the q value. The X-ray tube has a Copper target, with a current intensity of 40 mA and a voltage of 40 kV. Radiation was generated by the Cockcroft-Walton method, and was constituted by Kα1 (1.540562 Å) and Kα2 (1.544398 Å). The analytical conditions were: • Fixed Time; sampling width 0.02 deg, scanning rate 1.3 s/step, 2 q range 3.35 deg and sample holder; amorphous glass equiangular 9200/2G, 0.2 mm deep. The sample was pressed with a glass plate.
A general note: In DSC, transitions show as peaks or steps in heat flow.

A short description of data set [2]: XRPD of binary Cyclobenzaprine HCl/mannitol mixtures (Example 3). The class given is physicochemical. Particulars: Cyclobenzaprine HCl/mannitol mixtures 30, 50, 65, 75 and 90% API, no thermal treatment. Here is the method: In order to confirm the eutectic formation and to characterize its physical properties, several binary mixtures at different ratios of API-excipient were prepared and analyzed by DSC and by X-ray powder diffraction (XRPD). The mixtures were obtained by gently milling in agate mortar of micronized Cyclobenzaprine HCl and mannitol, in order to obtain homogeneous distribution of the particles. For each DSC heating curve, the onset temperature and the enthalpy were evaluated both for the eutectic contribute and for the excess of component. The recorded values were plotted and a phase diagram between the two components was obtained with a characteristic profile of phase diagrams of eutectic mixtures.
Mixtures also were investigated by XRPD and compared with the patterns of pure components. […] The XRPD patterns obtained in the mixtures, compared with pure components, were plotted in order to confirm the linearity of the peak intensities (cpf) of mannitol and Cyclobenzaprine HCl, and a proportional peak height at characteristic 2 theta angles.
X-ray powder diffraction (XRPD) tests were performed with a ULTIMA IV (Rigaku) instrument, laying the sample on a static sample holder. […] The radiation generated by the Cockcroft-Walton method is constituted by Kα1 (1.540562 Å) and Kα2 (1.544398 Å). […]

In the case of `OC[C@@H](O)[C@@H](O)[C@H](O)[C@H](O)CO` [Mannitol], in data set [1], the “Interactions between Cyclobenzaprine HCl and excipients, Mixture 1:1 (mixed)” value is “Eutectic”; the “Interactions between Cyclobenzaprine HCl and excipients, Mixture 1:1 (milled)” value is “Eutectic”. In data set [1] (listed as mannitol), the “Interactions between Cyclobenzaprine HCl and excipients, Mixture 1:1 (mixed)” value is given as “physical complex interaction peak (eutectic)”; the “Interactions between Cyclobenzaprine HCl and excipients, Mixture 1:1 (milled)” value is “physical complex interaction peak (eutectic)”. For the same molecule, in data set [2], the “Adduct formation by XRPD” value is “no adduct formation, only a physical eutectic formation”.
